# In patent US6555702B2, “Protein kinase inhibitor” (Calyx Therapeutics, Inc., priority 1997, dated 2003):
# Entries after “also recorded” stand apart in the source; their conditions may differ.
# Experiments:
# [1] = Solubility (Table A); type: physicochemical; conditions: solvents in which the compound is soluble
# [2] = test system: NOD mice; experiment: Hypoglycemic effect in non-obese diabetic (NOD) mice; type: in vivo, mouse; conditions: daily oral administration, treatment mode, vs vehicle; FIG. 5
# Experimental: The hypoglycemic effect of Compound 2 (water-soluble analog of A1) was evaluated in the treatment mode in non-obese diabetic (NOD) mice.
# [3] = test system: septic shock; conditions: background statement; cited from earlier work
# [4] = test system: IL 12 secretion by splenic macrophages; experiment: IL 12 secretion by LPS-stimulated splenic macrophages; type: cell-based; conditions: mouse splenic macrophages, 5 ug/ml LPS, varying doses, 72 hr; FIG. 1A
# Experimental: The effects of these three tyrphostins on the secretion of pro-inflammatory cytokines from macrophages were compared. Mouse splenic macrophages were stimulated with 5 ugh/ml lipopolysaccharide (LPS) and treated with varying doses of tyrphostins. The cells were cultured for 72 hr and the amount of IL 12 and nitric oxide was measured. […] Similar results were obtained with respect to nitric oxide levels, with tyrphostin A1 (FIG. 1B) showing good results.
# [5] = test system: mitogen stimulated splenic T cells; experiment: T cell proliferation induced by IL 2; type: cell-based, mouse; conditions: stimulated with 1 U/ml IL 2
# [6] = test system: mitogen stimulated splenic T cells; experiment: T cell proliferation induced by IL 12; type: cell-based, mouse; conditions: stimulated with 10 U/ml IL 12
# [7] = test system: leukemic cells; conditions: acute lymphoblastic leukemia; background statement; cited from earlier work
SMILES,SOLUBILITY [1],inhibition of IL 12 secretion [4],inhibition of T cell proliferation [5],inhibition of T cell proliferation [6],further results
N#CC(C#N)=Cc1ccc(OCC(=O)[O-])cc1.[Na+] [Compound 5],Water,,,,
CCOC(=O)COc1ccc(C=C(C#N)C#N)cc1 [Compound 6],Chloroform Ethanol (warm),,,,
N#CC(C#N)=Cc1ccc([N+](=O)[O-])c(O)c1 [Tyrphostin A10],,inhibited IL 12 production,did not show any significant inhibition,did not show any significant inhibition,protection in septic shock [3]: protective in septic shock
N#C/C(=C\c1ccc(O)c(O)c1)C(=O)NCc1ccccc1 [Tyrphostin B42],,inhibited IL 12 production,inhibited T cell proliferation,inhibited T cell proliferation,prevention of growth of leukemic cells [7]: effective in preventing the growth of leukemic cells

# Second part, led by results:
SOLUBILITY [1],SMILES,inhibition of IL 12 secretion [4],inhibition of T cell proliferation [5],inhibition of T cell proliferation [6],further results
Ethanol Acetone,N#CC(C#N)=Cc1ccc(O)cc1 [Compound 7],,,,
Water,"N#CC(C#N)=Cc1ccc(C(=O)[O-])cc1.[Na+] [Compound 2, Sodium 1-cyano-3-(4-carboxy-phenyl)-acrylonitrile]",,,,effect on blood glucose level [2]: significant effect on blood glucose level; also recorded: lowering blood glucose level
